The values that follow come from ChEMBL document CHEMBL1201862, “PubChem BioAssay data set” (2004).

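Grown in 96-well plates, cells were treated for 48 hours with each compound at five concentrations. Insufficient inhibition: endpoint recorded as highest concentration tested. At the GI50, growth is halved.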 Calls of active or inactive are those of the source. Rule as the data show it: active = GI50 up to about 1.1 µM and inactive = higher. Where only a bound is given, the exact number is not on record here.

Among the test systems are 786-0; A498; HCC 2998; HL-60; HOP-62; HOP-92; M14; NCI-H522; NCI/ADR-RES; OVCAR-3; OVCAR-5; OVCAR-8; SF-295; SK-MEL-28; SN12C; SNB-19; TK-10; U-251; UO-31; LOX IMVI.
Holding throughout (test): NCI-60 cell line screen, 48 h

With `COc1cc(/C=C2\C[C@H]3[C@@H]4CC=C5C[C@@H](N6CCCC6)CC[C@]5(C)[C@H]4CC[C@]3(C)[C@H]2OC(C)=O)cc(OC)c1OC`, the GI50 was 11.3 µM (inactive) in the assay on 786-0; 15.2 µM (inactive) in the assay on A498; 2.38 µM (inactive) in the assay on HCC 2998; 21.9 µM (inactive) in the assay with HL-60; 15.6 µM (inactive) in the assay on HOP-62; 10.3 µM (inactive) with HOP-92. Moreover, the GI50 in the assay with M14 was 15.8 µM (inactive); with NCI-H522, 16.7 µM (inactive); with NCI/ADR-RES it was 16.3 µM (inactive); in the assay with OVCAR-3, 15.5 µM (inactive); in the assay with OVCAR-5, 15.8 µM (inactive); with OVCAR-8, 15 µM (inactive). The GI50 in the assay on SF-295 is 12.8 µM (inactive); in the assay on SK-MEL-28, 19 µM (inactive); with SN12C, 14 µM (inactive); in the assay on SNB-19, 18.4 µM (inactive); in the assay on TK-10, 20.6 µM (inactive); in the assay on U-251, 15.8 µM (inactive). Besides, the GI50 in the assay with UO-31 is 15 µM (inactive).

For the compound `CC(C)=CCC/C(C)=C/CC/C(C)=C/CC/C(C)=C/CC/C(C)=C\CC/C(C)=C/CC/C(C)=C/CC/C(C)=C/Cc1cc(O)ccc1O`, the GI50 was 1.45 µM (inactive) with 786-0; 0.993 µM (active) in the assay with A498; 4.99 µM (inactive) with HCC 2998; 6.03 µM (inactive) in the assay with HOP-62; 8.49 µM (inactive) with HOP-92; 0.966 µM (active) in the assay with LOX IMVI. Besides, the GI50 was 0.213 µM (active) with M14; 0.505 µM (active) in the assay on NCI-H522; 0.459 µM (active) with NCI/ADR-RES; 0.573 µM (active) in the assay on OVCAR-3; 9.27 µM (inactive) in the assay with OVCAR-5; 1.15 µM (inactive) in the assay on OVCAR-8. The GI50 was 1.45 µM (inactive) with SF-295; 0.424 µM (active) in the assay on SK-MEL-28; 5.31 µM (inactive) with SN12C; 10 µM (inactive) in the assay with SNB-19; 1.41 µM (inactive) with TK-10; 1.85 µM (inactive) in the assay with U-251. Further, the GI50 in the assay with UO-31 is 1.72 µM (inactive).

On to `CN/C(=N\n1cnnc1)OC`, for which the GI50 with 786-0, in the assay with A498, in the assay with HCC 2998, in the assay with HOP-62, with HOP-92 and with M14 was > 100 µM (inactive) throughout. Besides, the GI50 with NCI-H522, with NCI/ADR-RES, in the assay on OVCAR-3, in the assay on OVCAR-5, in the assay with OVCAR-8 and in the assay on SF-295 was > 100 µM (inactive) each time. In addition, the GI50 with SK-MEL-28, in the assay on SNB-19, with U-251 and with UO-31 was > 100 µM (inactive) in each case.

Consider `CCCCC(=O)Nc1ccc2c(C)cc(-c3ccc(-c4cc(-c5ccc(C)cc5)cc(-c5ccc(-c6cc(C)c7ccc(NC(=O)CCCC)nc7n6)cc5)n4)cc3)nc2n1`, for which the GI50 was > 100 µM (inactive) in the assay with 786-0; > 100 µM (inactive) in the assay on A498; > 100 µM (inactive) with HCC 2998; > 100 µM (inactive) in the assay with HOP-62; 78.9 µM (inactive) with HOP-92; > 100 µM (inactive) in the assay on M14. In addition, the GI50 in the assay with NCI-H522, in the assay with NCI/ADR-RES, in the assay with OVCAR-3, with OVCAR-5, with SF-295 and with SK-MEL-28 was > 100 µM (inactive) throughout. Further, the GI50 with SN12C, in the assay on SNB-19, in the assay with TK-10, with U-251 and in the assay on UO-31 was > 100 µM (inactive) throughout.

For `NC(=O)C1CCCN1Cc1ccc2c(c1)OCO2` (centres undefined), the GI50 with 786-0, in the assay on A498, in the assay with HL-60, in the assay with HOP-62, in the assay with HOP-92 and in the assay on LOX IMVI was > 100 µM (inactive) throughout. Further, the GI50 in the assay with M14, with NCI-H522, with NCI/ADR-RES, in the assay with OVCAR-3, in the assay on OVCAR-5 and in the assay on OVCAR-8 was > 100 µM (inactive) in each case. Moreover, the GI50 in the assay on SF-295, in the assay with SK-MEL-28, in the assay on SN12C, with SNB-19, in the assay on TK-10 and in the assay on U-251 was > 100 µM (inactive) throughout. For the same compound, the GI50 with UO-31 is > 100 µM (inactive).

As to `O=c1c2cc(S(=O)(=O)O)ccc2nc(COc2ccc(Oc3ccc(Cl)cc3Cl)cc2)n1C(=S)Nc1ccc(Cl)cc1`, the GI50 with 786-0 is 19.2 µM (inactive); with A498, 22.5 µM (inactive); in the assay on HL-60, 0.457 µM (active); in the assay with HOP-62, 20.5 µM (inactive); in the assay with HOP-92, 18.1 µM (inactive); in the assay with LOX IMVI it was 16.6 µM (inactive). The GI50 was 20.2 µM (inactive) in the assay on M14; 17.6 µM (inactive) in the assay with NCI-H522; 17.7 µM (inactive) with NCI/ADR-RES; 21.5 µM (inactive) in the assay with OVCAR-3; 19.8 µM (inactive) with OVCAR-5; 21.6 µM (inactive) with OVCAR-8. The GI50 in the assay with SF-295 was 19.9 µM (inactive); in the assay on SN12C, 18.8 µM (inactive); with SNB-19 it was 33.4 µM (inactive); with TK-10 it was 18.3 µM (inactive); in the assay with U-251 it was 17.2 µM (inactive); with UO-31, 15.8 µM (inactive).

As to `O=c1[nH]c(Nc2nc3ccccc3[nH]2)nc(O)c1-c1ccccc1`, the GI50 in the assay with 786-0, in the assay with A498, in the assay with HCC 2998, in the assay with HOP-62, in the assay with HOP-92 and with LOX IMVI was > 100 µM (inactive) each time. Besides, the GI50 in the assay on M14, in the assay with NCI-H522, in the assay on NCI/ADR-RES, in the assay on OVCAR-3, with OVCAR-5 and with OVCAR-8 was > 100 µM (inactive) each time. The GI50 with SF-295 is > 100 µM (inactive); in the assay with SK-MEL-28, > 100 µM (inactive); in the assay on SN12C it was > 100 µM (inactive); with SNB-19 it was > 100 µM (inactive); with TK-10 it was > 100 µM (inactive); in the assay with U-251, 82.2 µM (inactive). In addition, in the assay on UO-31, the GI50 was > 100 µM (inactive).

With `Fc1c(F)c(C(F)(F)F)c(F)c(F)c1N/N=C/c1cn(Cc2ccccc2)c2ccccc12`, the GI50 was 23.2 µM (inactive) in the assay with 786-0; 27.9 µM (inactive) with A498; 21.8 µM (inactive) with HL-60; 2.24 µM (inactive) in the assay with HOP-62; 24 µM (inactive) with HOP-92; 22.8 µM (inactive) in the assay on LOX IMVI. Further, the GI50 in the assay on M14 was 18.2 µM (inactive); with NCI-H522, 23.7 µM (inactive); in the assay with NCI/ADR-RES, 24.7 µM (inactive); in the assay with OVCAR-3, 13.2 µM (inactive); in the assay with OVCAR-5, 19.2 µM (inactive); in the assay on OVCAR-8, 36.6 µM (inactive). Also, the GI50 was 13.6 µM (inactive) in the assay on SF-295; 34.8 µM (inactive) with SK-MEL-28; 29.2 µM (inactive) in the assay with SN12C; 30.1 µM (inactive) with SNB-19; 25.2 µM (inactive) in the assay with TK-10; 34 µM (inactive) in the assay on U-251. In the assay on UO-31, the GI50 is 23.4 µM (inactive).

For `Cc1ccc(S(=O)(=O)NC(=O)NC(Cc2ccc(O)c(O)c2)C(=O)O)cc1` (centres undefined), the GI50 is 20.4 µM (inactive) with 786-0; > 100 µM (inactive) in the assay with A498; > 100 µM (inactive) with HL-60; > 100 µM (inactive) in the assay on HOP-62; 80.5 µM (inactive) in the assay on HOP-92; > 100 µM (inactive) with LOX IMVI. Further, the GI50 in the assay on M14 is > 100 µM (inactive); in the assay with NCI-H522, > 100 µM (inactive); in the assay with NCI/ADR-RES it was > 100 µM (inactive); in the assay with OVCAR-3 it was > 100 µM (inactive); in the assay with OVCAR-5 it was > 100 µM (inactive); in the assay on OVCAR-8, 81.8 µM (inactive). For the same compound, the GI50 in the assay on SF-295, in the assay on SK-MEL-28, in the assay on SN12C, in the assay with SNB-19, in the assay on TK-10 and in the assay with U-251 was > 100 µM (inactive) throughout. Moreover, in the assay with UO-31, the GI50 is > 100 µM (inactive).

As for `COc1ccc(CC(=O)N2CCC3(C)CC(=O)CC=C23)cc1OC` (centres undefined), the GI50 was > 100 µM (inactive) with 786-0; > 100 µM (inactive) in the assay with A498; > 100 µM (inactive) in the assay on HL-60; 93.8 µM (inactive) in the assay on HOP-62; > 100 µM (inactive) with HOP-92; > 100 µM (inactive) with LOX IMVI. Further, the GI50 is > 100 µM (inactive) in the assay on M14; 33.6 µM (inactive) with NCI-H522; > 100 µM (inactive) in the assay on NCI/ADR-RES; > 100 µM (inactive) in the assay with OVCAR-3; > 100 µM (inactive) in the assay with OVCAR-5; > 100 µM (inactive) with OVCAR-8. Also, the GI50 with SF-295 was > 100 µM (inactive); in the assay with SK-MEL-28 it was > 100 µM (inactive); with SN12C it was > 100 µM (inactive); with SNB-19, > 100 µM (inactive); in the assay on TK-10, < 0.01 µM (active); in the assay with U-251, > 100 µM (inactive). In the assay with UO-31, the GI50 is > 100 µM (inactive).
